The structures appear in SMILES notation.

Our source for the IC50 values is patent US7265149B2, “Indolyl derivatives” (Hoffmann-La Roche Inc., priority 2004, dated 2007).

The target of assay [1] is T1, PPARγ (Mus musculus, UniProt P37238).
T1 construct: PPARγ (aa 174 to 476); made in house; host or cells: E. coli BL21 (pLysS)
T1 sequence (P37238 174-475 isoform P37238-2): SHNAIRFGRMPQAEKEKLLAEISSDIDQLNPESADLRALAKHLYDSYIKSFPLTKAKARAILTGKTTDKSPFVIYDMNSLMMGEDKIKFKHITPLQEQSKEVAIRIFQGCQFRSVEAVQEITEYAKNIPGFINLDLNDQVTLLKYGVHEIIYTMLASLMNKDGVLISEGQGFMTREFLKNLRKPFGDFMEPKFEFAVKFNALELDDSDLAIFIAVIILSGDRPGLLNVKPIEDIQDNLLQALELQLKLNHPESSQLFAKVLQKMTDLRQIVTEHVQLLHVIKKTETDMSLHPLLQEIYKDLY
Put plainly: PPARγ radioligand binding assay (scintillation proximity). The settings on record: GST-PPARγ-LBD fusion protein on SPA beads. The source says: (§1) Background information on the performed assays can be found in: Nichols J S et al. “Development of a scintillation proximity assay for peroxisome proliferator-activated receptor gamma ligand binding domain”, (1998) Anal. Biochem. 257: 112-119.
(§2) Full-length cDNA clones for humans PPARδ and PPARα and mouse PPARγ were obtained by RT-PCR from human adipose and mouse liver cRNA, respectively, cloned into plasmid vectors and verified by DNA sequencing. Bacterial and mammalian expression vectors were constructed to produce glutathione-s-transferase (GST) and Gal4 DNA binding domain proteins fused to the ligand binding domains (LBD) of PPARδ (aa 139 to 442), PPARγ (aa 174 to 476) and PPARα (aa 167 to 469). To accomplish this, the portions of the cloned sequences encoding the LBDs were amplified from the full-length clones by PCR and then subcloned into the plasmid vectors. Final clones were verified by DNA sequence analysis.
(§3) Induction, expression, and purification of GST-LBD fusion proteins were performed in E. coli strain BL21 (pLysS) cells by standard methods (Ref: Current Protocols in Molecular Biology, Wiley Press, edited by Ausubel et al.).
(§4) Radioligand Binding Assay
PPARγ receptor binding was assayed in TKE50 (50 mM Tris-HCl, pH 8, 50 mM KCl, 2 mM EDTA, 0.1 mg/ml fatty acid-free BSA and 10 mM DTT). For each 96 well reaction an 140 ng equivalent of GST-PPARγ-LBD fusion protein was bound to 10 μg SPA beads (PharmaciaAmersham) in a final volume of 50 ul by shaking. The resulting slurry was incubated for 1 h at RT and centrifuged for 2 min at 1300 g. The supernatant containing unbound protein was removed and the semidry pellet containig the recptor-coated beads was resolved in 50 μl of TKE. […] All binding assays were performed in 96 well plates and the amount of bound ligand measured on a Packard TopCount using OptiPlates (Packard). Nonspecific binding was determined in the presence of 10^−4 M unlabelled compound. […]
(In general: In a scintillation proximity assay essentially only radioactivity close to the scintillant gives light.)

In assay [2] the target is T2, PPARδ (Homo sapiens, UniProt Q03181).
T2 construct: PPARδ (aa 139 to 442); made in house; host or cells: E. coli BL21 (pLysS)
T2 sequence (Q03181 139-441 limits assumed): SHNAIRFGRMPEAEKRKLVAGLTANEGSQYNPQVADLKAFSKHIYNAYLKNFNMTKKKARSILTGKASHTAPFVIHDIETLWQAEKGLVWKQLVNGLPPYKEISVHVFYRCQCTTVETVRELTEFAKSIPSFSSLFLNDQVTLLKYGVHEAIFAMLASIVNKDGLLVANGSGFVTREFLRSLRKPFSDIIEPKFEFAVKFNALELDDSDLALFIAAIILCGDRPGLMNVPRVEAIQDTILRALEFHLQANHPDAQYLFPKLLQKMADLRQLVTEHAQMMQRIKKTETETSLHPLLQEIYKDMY
Put plainly: PPARδ radioligand binding assay (scintillation proximity). The settings on record: GST-PPARδ-LBD fusion protein on SPA beads.
Source text: as §1, §2, §3, §4
PPARδ receptor binding was assayed in HNM10 (50 mM Hepes, pH 7.4, 10 mM NaCl, 5 mM MgCl2, 0.15 mg/ml fatty acid-free BSA and 15 mM DTT). For each 96 well reaction a 500 ng equivalent of GST-PPARδ-LBD fusion protein and radioligand, e.g. 20000 dpm {2-methyl-4-[4-methyl-2-(4-trifluoromethyl-phenyl)-thiazol-5-yl-ditritiomethylsulfanyl]-phenoxy}-acetic acid, was bound to 10 μg SPA beads (PharmaciaAmersham) in a final volume of 50 μl by shaking. The resulting slurry was incubated for 1 h at RT and centrifuged for 2 min at 1300 g. […] Radioligand was added and the reaction incubated at RT for 1 h and scintillation proximity counting performed in the presence of test compounds was determined. All binding assays were performed in 96 well plates and the amount of bound ligand was measured on a Packard TopCount using OptiPlates (Packard). […]

Assay [3] addresses T3, PPARα (Homo sapiens, UniProt Q07869).
T3 construct: PPARα (aa 167 to 469); made in house; host or cells: E. coli BL21 (pLysS)
T3 sequence (Q07869 167-468 limits assumed): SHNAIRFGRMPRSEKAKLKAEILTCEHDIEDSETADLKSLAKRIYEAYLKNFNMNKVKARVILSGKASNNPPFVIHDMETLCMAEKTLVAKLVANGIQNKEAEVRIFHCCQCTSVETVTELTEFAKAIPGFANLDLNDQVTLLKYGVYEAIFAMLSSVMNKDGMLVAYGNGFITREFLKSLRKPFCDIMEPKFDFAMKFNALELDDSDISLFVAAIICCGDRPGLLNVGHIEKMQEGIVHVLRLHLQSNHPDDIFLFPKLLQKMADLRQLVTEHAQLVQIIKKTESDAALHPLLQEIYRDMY
Description: PPARα radioligand binding assay (scintillation proximity). The settings on record: GST-PPARα-LBD fusion protein on SPA beads.
Source text: as §1
as §2, with “analysis. […]” for “analysis.”
PPARα receptor binding was assayed in TKE50 (50 mM Tris-HCl, pH 8, 50 mM KCl, 2 mM EDTA, 0.1 mg/ml fatty acid-free BSA and 10 mM DTT). […] All binding assays were performed in 96 well plates and the amount of bound ligand measured on a Packard TopCount using OptiPlates (Packard). Nonspecific binding was determined in the presence of 10^−4 M unlabelled compound. […]

As a reminder, the IC50 is the concentration that inhibits the measured activity by half. `Cc1c(-c2ccc(Cl)cc2)nn(C)c1COc1ccc2ccn(CC(=O)O)c2c1` [Example 2, {6-[5-(4-Chloro-phenyl)-2,4-dimethyl-2H-pyrazol-3-ylmethoxy]-indol-1-yl}-acetic acid]: the values for the IC50 in assay [1] and in assay [2] were not below 10 µM and 0.14 µM, respectively.
For the compound `Cn1nc(-c2ccc(C(F)(F)F)cc2)c(Br)c1COc1ccc2ccn(CC(=O)O)c2c1` [Example 8, {6-[4-Bromo-2-methyl-5-(4-trifluoromethyl-phenyl)-2H-pyrazol-3-ylmethoxy]-indol-1-yl}-acetic acid], the IC50 in assay [3] was 2.57 µM; in assay [1], not below 10 µM; in assay [2] it was 0.004 µM.
As to `Cn1nc(-c2ccc(OC(F)(F)F)cc2)cc1CCCOc1ccc2ccn(CC(=O)O)c2c1` [Example 20, (6-{3-[2-Methyl-5-(4-trifluoromethoxy-phenyl)-2H-pyrazol-3-yl]-propoxy}-indol-1-yl)-acetic acid], the results for the IC50 in assay [3], in assay [1] and in assay [2] were 0.013 µM, not below 10 µM and 0.043 µM, respectively.
